According to patent US9951068B2 (Proximagen Limited, priority 2013, dated 2018):
Counter-ions that a name gives are not always drawn.

Each compound was assayed against purified recombinantly expressed human SSAO (Homo sapiens (Human), UniProt Q16853) (assay: SSAO enzyme inhibition assay (HRP-coupled hydrogen peroxide detection or 14C-benzaldehyde detection, benzylamine substrate)). Settings: SSAO inhibitory activity, human recombinant SSAO, RT.
Format: biochemical
Description: All primary assays were performed at RT. with purified recombinantly expressed human SSAO. Enzyme was prepared essentially as described in Öhman et al. (Protein Expression and Purification 46 (2006) 321-331). In addition, secondary- and selectivity assays were performed using SSAO prepared from various tissues or purified rat recombinant SSAO. The enzyme activity was assayed with benzylamine as substrate by measuring either benzaldehyde production, using ^14C-labeled substrate, or by utilizing the production of hydrogen peroxide in a horseradish peroxidase (HRP) coupled reaction. Briefly, test compounds were dissolved in dimethyl sulfoxide (DMSO) to a concentration of 10 mM. Dose-response measurements were assayed by either creating 1:10 serial dilutions in DMSO to produce a 7 point curve or by making 1:3 serial dilutions in DMSO to produce 11 point curves.
In a horseradish peroxidase (HRP) coupled reaction, hydrogen peroxide oxidation of 10-acetyl-3,7-dihydroxyphenoxazine produced resorufin, which is a highly fluorescent compound (Zhout and Panchuk-Voloshina. Analytical Biochemistry 253 (1997) 169-174; Amplex® Red Hydrogen Peroxide/peroxidase Assay kit, Invitrogen A22188). Enzyme and compounds in 50 mM sodium phosphate, pH 7.4 were set to pre-incubate in flat-bottomed microtiter plates for approximately 15 min before initiating the reaction by addition of a mixture of HRP, benzylamine and Amplex reagent. Benzylamine concentration was fixed at a concentration corresponding to the Michaelis constant, determined using standard procedures. Fluorescence intensity was then measured at several time points during 1-2 h, exciting at 544 nm and reading the emission at 590 nm. For the human SSAO assay final concentrations of the reagents in the assay wells were: SSAO enzyme 1 ug/ml, benzylamine 100 uM, Amplex reagent 20 uM, HRP 0.1 U/mL and varying concentrations of test compound. The inhibition was measured as % decrease of the signal compared to a control without inhibitor (only diluted DMSO). The background signal from a sample containing no SSAO enzyme was subtracted from all data points. Data was fitted to a four parameter logistic model and IC50 values were calculated using the GraphPad Prism 4 or XLfit 4 programs.
SSAO activity was assayed using 14C-labeled benzylamine and analysed by measuring radioactive benzaldehyde. In a white 96-well optiplate (Packard), 20 uL of diluted test compound was pre-incubated at room temperature with 20 uL SSAO enzyme for approximately 15 min with continuous agitation. All dilutions were made with PBS. The reaction was initiated by adding 20 uL of the benzylamine substrate solution containing [7-14C] Benzylamine hydrochloride (CFA589, GE Healthcare). The plate was incubated for 1 h as above after which the reaction was stopped by acidification (10 uL 1M aq HCl). Then 90 uL Micro Scint-E solution (Perkin-Elmer) was added to each well and the plate was continuously mixed for 15 min. Phase separation occurred instantly and activity was read in a Topcount scintillation counter (Perkin-Elmer). In the final reaction well, the human recombinant SSAO concentration was 10 ug/ml. In order to optimize sensitivity, the substrate concentration was decreased as compared to the HRP coupled assay in order to get a higher fraction of radioactive product. In the human SSAO assay, benzylamine concentration was 40 uM (0.2 uCi/mL). Data was analysed as above.

Chain of purified recombinantly expressed human SSAO (Q16853 29-763): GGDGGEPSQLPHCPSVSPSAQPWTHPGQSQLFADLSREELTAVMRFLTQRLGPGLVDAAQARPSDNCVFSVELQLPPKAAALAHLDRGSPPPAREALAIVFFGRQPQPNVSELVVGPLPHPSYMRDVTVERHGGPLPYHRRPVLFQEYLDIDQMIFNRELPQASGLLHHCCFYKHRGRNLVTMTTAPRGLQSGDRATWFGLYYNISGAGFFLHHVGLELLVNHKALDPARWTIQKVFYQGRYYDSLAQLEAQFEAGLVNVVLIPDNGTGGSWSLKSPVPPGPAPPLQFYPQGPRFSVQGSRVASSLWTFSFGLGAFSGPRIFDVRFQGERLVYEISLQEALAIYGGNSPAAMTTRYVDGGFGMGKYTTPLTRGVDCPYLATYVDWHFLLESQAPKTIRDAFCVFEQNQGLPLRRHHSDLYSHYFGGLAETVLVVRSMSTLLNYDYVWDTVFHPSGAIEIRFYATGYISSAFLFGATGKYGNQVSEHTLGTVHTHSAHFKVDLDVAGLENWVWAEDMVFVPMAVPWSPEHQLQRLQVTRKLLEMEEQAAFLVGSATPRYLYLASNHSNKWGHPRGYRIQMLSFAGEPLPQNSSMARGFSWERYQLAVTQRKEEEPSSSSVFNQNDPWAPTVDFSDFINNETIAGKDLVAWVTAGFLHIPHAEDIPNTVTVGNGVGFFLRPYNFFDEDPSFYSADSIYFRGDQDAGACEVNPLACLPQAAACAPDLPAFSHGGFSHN

| IC50 [nM] | SMILES |
| --- | --- |
| < 50 | Fc1ccc(-n2c(-c3cnc(N4CCCOCC4)nc3)nc3ccncc32)cc1 [Example 25, 4-{5-[3-(4-Fluorophenyl)-3H-imidazo[4,5-c]pyridin-2-yl]pyrimidin-2-yl}-1,4-oxazepane] |
| < 50 | Cc1cc(N2CCOCC2)ncc1-c1nc2ccncc2n1-c1ccc(Cl)cc1F [Example 22, 4-{5-[3-(4-Chloro-2-fluorophenyl)-3H-imidazo[4,5-c]pyridin-2-yl]-4-methylpyridin-2-yl}morpholine] |
| < 50 | Oc1ccc(-n2c(-c3ccc(N4CCOCC4)nc3)nc3ccncc32)cc1 [Example 65, 4-{2-[6-(Morpholin-4-yl)pyridin-3-yl]-3H-imidazo[4,5-c]pyridin-3-yl}phenol] |
| < 50 | Clc1ccc(-n2c(-c3ccc(CN4CCOCC4)cc3)nc3ccncc32)cc1 [Example 49, 4-({4-[3-(4-Chlorophenyl)-3H-imidazo[4,5-c]pyridin-2-yl]phenyl}methyl)morpholine] |
| < 50 | Cc1cc(F)ccc1-n1c(-c2cnc(N3CCOCC3)nc2)nc2ccncc21 [Example 55, 4-{5-[3-(4-Fluoro-2-methylphenyl)-3H-imidazo[4,5-c]pyridin-2-yl]pyrimidin-2-yl}morpholine] |
| < 50 | Fc1ccc(-n2c(-c3ccc(N4CCOCC4)nc3)nc3ccncc32)c(F)c1 [Example 41, 4-{5-[3-(2,4-Difluorophenyl)-3H-imidazo[4,5-c]pyridin-2-yl]pyridin-2-yl}morpholine] |
| < 50 | Fc1ccc(-n2c(-c3ccc(OC4CCOC4)nc3)nc3ccncc32)cc1 (centres unmarked) [Example 112, 5-[3-(4-Fluorophenyl)-3H-imidazo[4,5-c]pyridin-2-yl]-2-(oxolan-3-yloxy)pyridine] |
| < 50 | CC(=O)N1CCCN(c2ccc(-c3nc4ccncc4n3-c3ccc(F)cc3)cn2)CC1 [Example 87, 1-(4-{5-[3-(4-Fluorophenyl)-3H-imidazo[4,5-c]pyridin-2-yl]pyridin-2-yl}-1,4-diazepan-1-yl)ethan-1-one; bis(trifluoroacetic acid)] |
| < 50 | Clc1ccc(-n2c(-c3cnc(N4CCOCC4)nc3)cc3ccncc32)cc1 [Example 127, 4-{5-[1-(4-Chlorophenyl)-1H-pyrrolo[2,3-c]pyridin-2-yl]pyrimidin-2-yl}morpholine] |
| < 50 | Cc1ccc(-n2c(-c3ccc(N4CCOCC4)nc3)nc3ccncc32)c(F)c1 [Example 67, 4-{5-[3-(2-Fluoro-4-methylphenyl)-3H-imidazo[4,5-c]pyridin-2-yl]pyridin-2-yl}morpholine] |
| < 50 | Cc1nc(N2CCOCC2)ncc1-c1nc2ccncc2n1-c1ccc(Cl)cc1F [Example 27, 4-{5-[3-(4-Chloro-2-fluorophenyl)-3H-imidazo[4,5-c]pyridin-2-yl]-4-methylpyrimidin-2-yl}morpholine] |

The next lines start with the compound.

| SMILES | IC50 [nM] |
| --- | --- |
| CCOCCNc1ncc(-c2nc3ccncc3n2-c2ccc(C)cc2)cn1 [Example 43, N-(2-Ethoxyethyl)-5-[3-(4-methylphenyl)-3H-imidazo[4,5-c]pyridin-2-yl]pyrimidin-2-amine] | < 50 |
| Cc1nc(C)c(-c2cc3ccncc3n2-c2ccc(Cl)cc2)[nH]1 [Example 126, 5-[1-(4-Chlorophenyl)-1H-pyrrolo[2,3-c]pyridin-2-yl]-2,4-dimethyl-1H-imidazole] | < 50 |
| Cc1cnccc1-c1cc2ccncc2n1-c1ccc(Cl)cc1 [Example 154, 4-[1-(4-Chlorophenyl)-1H-pyrrolo[2,3-c]pyridin-2-yl]-3-methylpyridine] | < 50 |
| Cn1ccc(-c2cc3ccncc3n2-c2ccc(Cl)cc2)cc1=O [Example 143, 4-[1-(4-Chlorophenyl)-1H-pyrrolo[2,3-c]pyridin-2-yl]-1-methyl-1,2-dihydropyridin-2-one] | < 50 |
| NC(=O)N1CCN(c2ccc(-c3nc4ccncc4n3-c3ccc(Cl)cc3)cn2)CC1 [Example 90, 4-{5-[3-(4-Chlorophenyl)-3H-imidazo[4,5-c]pyridin-2-yl]pyridin-2-yl}piperazine-1-carboxamide dihydrochloride] | < 50 |
| Clc1ccc(-n2c(-c3ccccn3)cc3ccncc32)cc1 [Example 121, 2-[1-(4-Chlorophenyl)-1H-pyrrolo[2,3-c]pyridin-2-yl]pyridine] | < 50 |
| Clc1ccc(-n2c(-c3cnc(NCC4CC4)nc3)cc3ccncc32)cc1 [Example 149, 5-[1-(4-Chlorophenyl)-1H-pyrrolo[2,3-c]pyridin-2-yl]-N-(cyclopropylmethyl)pyrimidin-2-amine] | < 50 |
| Clc1ccc(-n2c(-c3ccc(Cn4ccnc4)cc3)nc3ccncc32)cc1 [Example 48, 1-({4-[3-(4-Chlorophenyl)-3H-imidazo[4,5-c]pyridin-2-yl]phenyl}methyl)-1H-imidazole] | < 50 |
| Clc1ccc(-n2c(-c3cnc(NC4CCOCC4)nc3)cc3ccncc32)cc1 [Example 139, 5-[1-(4-Chlorophenyl)-1H-pyrrolo[2,3-c]pyridin-2-yl]-N-(oxan-4-yl)pyrimidin-2-amine] | < 50 |
| CN(C)c1ncc(-c2cc3ccncc3n2-c2ccc(Cl)cc2)cn1 [Example 137, 5-[1-(4-Chlorophenyl)-1H-pyrrolo[2,3-c]pyridin-2-yl]-N,N-dimethylpyrimidin-2-amine; bis(trifluoroacetic acid)] | < 50 |
| CS(=O)(=O)NC1CCN(c2ccc(-c3nc4ccncc4n3-c3ccc(Cl)cc3)cn2)CC1 [Example 88, N-(1-{5-[3-(4-Chlorophenyl)-3H-imidazo[4,5-c]pyridin-2-yl]pyridin-2-yl}piperidin-4-yl)methanesulfonamide] | < 50 |

These compounds were tested against human ether a go-go related gene (hERG) K+ channel (Homo sapiens (Human), UniProt Q12809) (assay: hERG assay, IonWorks patch clamp electrophysiology). Settings: Chinese Hamster Lung cell line stably expressing hERG; max assay concentration 11 uM.
Format: cell-based
Description: Compounds of the invention were tested for inhibition of the human ether a go-go related gene (hERG) K^+ channel using IonWorks patch clamp electrophysiology. 8 Point concentration-response curves were generated on two occasions using 3-fold serial dilutions from the maximum assay concentration (11 uM). Electrophysiological recordings were made from a Chinese Hamster Lung cell line stably expressing the full length hERG channel. Single cell ion currents were measured in the perforated patch clamp configuration (100 ug/mL amphoterocin) at room temperature using an IonWorks Quattro instrument. The internal solution contained 140 mM KCl, 1 mM MgCl2, 1 mM EGTA and 20 mM HEPES and was buffered to pH 7.3. The external solution contained 138 mM NaCl, 2.7 mM KCl, 0.9 mM CaCl2, 0.5 mM MgCl2, 8 mM Na2HPO4 and 1.5 mM KH2PO4, and was buffered to pH 7.3. […] This sequence was repeated 5 times at a frequency of 0.25 Hz. Currents were measured from the tail step at the 5th pulse, and referenced to the holding current. Compounds were incubated for 6-7 min prior to a second measurement of the hERG signal using an identical pulse train. […] A control compound (quinidine) was used (see Table 20 below).

Chain of human ether a go-go related gene (hERG) K+ channel (Q12809 whole entry): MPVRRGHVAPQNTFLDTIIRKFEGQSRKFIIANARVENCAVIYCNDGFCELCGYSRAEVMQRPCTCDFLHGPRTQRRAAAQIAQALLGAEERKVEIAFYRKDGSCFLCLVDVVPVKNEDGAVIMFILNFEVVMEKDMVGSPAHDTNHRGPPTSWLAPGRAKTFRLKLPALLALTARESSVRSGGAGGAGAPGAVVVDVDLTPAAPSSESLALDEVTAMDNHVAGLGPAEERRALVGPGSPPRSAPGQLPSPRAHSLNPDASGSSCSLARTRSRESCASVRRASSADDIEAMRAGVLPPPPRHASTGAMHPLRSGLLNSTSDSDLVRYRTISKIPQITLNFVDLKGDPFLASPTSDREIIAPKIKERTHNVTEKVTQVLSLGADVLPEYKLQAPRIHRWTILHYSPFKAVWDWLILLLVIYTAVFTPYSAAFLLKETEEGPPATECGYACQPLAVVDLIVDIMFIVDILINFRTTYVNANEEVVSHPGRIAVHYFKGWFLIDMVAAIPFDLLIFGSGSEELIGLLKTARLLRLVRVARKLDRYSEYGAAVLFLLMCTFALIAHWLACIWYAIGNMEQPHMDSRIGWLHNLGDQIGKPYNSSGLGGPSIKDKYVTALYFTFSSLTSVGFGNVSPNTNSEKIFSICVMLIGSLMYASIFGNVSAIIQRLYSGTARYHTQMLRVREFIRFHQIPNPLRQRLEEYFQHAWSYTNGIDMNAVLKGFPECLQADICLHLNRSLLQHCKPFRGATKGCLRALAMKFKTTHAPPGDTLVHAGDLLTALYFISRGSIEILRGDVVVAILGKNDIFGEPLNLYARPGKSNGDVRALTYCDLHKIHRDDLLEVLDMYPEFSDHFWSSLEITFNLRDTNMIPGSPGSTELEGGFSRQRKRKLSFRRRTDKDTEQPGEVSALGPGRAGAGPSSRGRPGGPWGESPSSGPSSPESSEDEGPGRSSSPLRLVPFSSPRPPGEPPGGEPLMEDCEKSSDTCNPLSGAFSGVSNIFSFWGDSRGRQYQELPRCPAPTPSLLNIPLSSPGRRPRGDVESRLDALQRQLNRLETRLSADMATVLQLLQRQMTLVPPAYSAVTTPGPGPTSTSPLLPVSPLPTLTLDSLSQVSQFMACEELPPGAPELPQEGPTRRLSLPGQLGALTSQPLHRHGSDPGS

| SMILES | IC50 [nM] |
| --- | --- |
| Cc1ccc(-n2c(-c3cnc(N4CCOCC4)nc3)nc3ccncc32)c(F)c1 [Example 53, 4-{5-[3-(2-Fluoro-4-methylphenyl)-3H-imidazo[4,5-c]pyridin-2-yl]pyrimidin-2-yl}morpholine] | > 10000 |
| Fc1ccc(-n2c(-c3cnc(N4CCOCC4)c(F)c3)nc3ccncc32)cc1 [Example 98, 4-{3-Fluoro-5-[3-(4-fluorophenyl)-3H-imidazo[4,5-c]pyridin-2-yl]pyridin-2-yl}morpholine] | > 10000 |
| Fc1cc(Cl)ccc1-n1c(-c2cnc(N3CCOCC3)nc2)nc2ccncc21 [Example 77, 4-{5-[3-(4-Chloro-2-fluorophenyl)-3H-imidazo[4,5-c]pyridin-2-yl]pyrimidin-2-yl}morpholine] | > 10000 |
| Nc1ccc(-c2nc3ccncc3n2-c2ccc(Cl)cc2)cn1 [Example 110, 5-[3-(4-Chlorophenyl)-3H-imidazo[4,5-c]pyridin-2-yl]pyridin-2-amine] | > 10000 |
| Cc1ccc(-n2c(-c3ccc(N4CCOCC4)nc3)nc3ccncc32)cc1 [Example 63, 4-{5-[3-(4-Methylphenyl)-3H-imidazo[4,5-c]pyridin-2-yl]pyridin-2-yl}morpholine] | > 10000 |
| Fc1ccc(-n2c(-c3cnc(NC4CCOCC4)nc3)nc3ccncc32)cc1 [Example 20, 5-[3-(4-Fluorophenyl)-3H-imidazo[4,5-c]pyridin-2-yl]-N-(oxan-4-yl)pyrimidin-2-amine] | > 10000 |
| Fc1ccc(-n2c(-c3ccc(N4CCOCC4)nc3)nc3ccncc32)cc1 [Example 54, 4-{5-[3-(4-Fluorophenyl)-3H-imidazo[4,5-c]pyridin-2-yl]pyridin-2-yl}morpholine] | > 10000 |
